Among the data in US20100099676A1 (SHIONOGI & CO., LTD., priority 2006, published 2010) are IC50 values, retold here.

Each structure is given as a SMILES string.

The target in the assay is T1, MMP-13 (Homo sapiens, UniProt P45452).
T1 construct: purchased Calbiochem (EMD/MERCK Biosciences)
The experiment in a line: Enzyme inhibiting activity of MMPs, fluorogenic peptide substrate. In kind it is biochemical. As to conditions: compounds not described in the Tables; read-out: inhibiting activity for MMP-13. As for the experimental part:
Various human MMPs (MMP-2, MMP-9 and MMP-13) were purchased from Calbiochem (EMD/MERCK Biosciences).
Since the purchased MMP-13 was Proenzyme, the activated one was used, which was incubated at 37° C. for 2 hours after the successive addition of an assay buffer (containing 50 mM Tris-HCl (pH7.6), 0.3 M NaCl, 10 mM CaCl2, 0.005% Brij35) and APMA (final concentration 1 mM) to the enzyme solution.
The enzyme activity of MMPs was measured according to the method described in C. Graham Knight, Frances Willenbrock and Gillian Murphy: A novel coumarin-labelled peptide for sensitive continuous assays of the matrix metalloproteinases: FEBS LETT., 296, (1992), 263-266. As a substrate, MOCAc-Pro-Leu-Gly-Leu-A2Pr(DNP)- Ala-Arg-NH2 (Peptide Institute, Inc. Osaka, Japan) was used, and the following four assays are performed per compound (inhibitor) for measuring the inhibiting activity.
(A) Substrate (synthetic substrate), enzyme (MMPs), inhibitor
(B) Substrate (synthetic substrate), inhibitor
(C) Substrate (synthetic substrate), enzyme (MMPs)
(D) Substrate (synthetic substrate)
In each assay, the fluorescent intensity was measured, and inhibition (%) was calculated by the following equation.
Inhibition (%)=[I−(A−B)/(C−D)]×100
IC50 indicates a concentration at which inhibition (%) is 50%.
Turning to `C[C@@H](NS(=O)(=O)N1CCN(c2ccc(C#Cc3ccc4cccc(/C=C\C#N)c4c3)cc2)CC1)C(=O)O` [Compound I-69, (R)-2-(4-{4-[8-((Z)-2-cyanovinyl)-naphthalen-2-ylethynyl]-phenyl}-piperazine-1-sulfonylamino)-proponic acid], the IC50 was 0.01 to 0.1 µM.
As for `C[C@@H](NS(=O)(=O)N1CCN(c2ccc(C#Cc3ccnc(C(=O)NCc4ccccc4)c3)cc2)CC1)C(=O)O` [Compound I-19, (R)-2-{4-[4-(2-benzylcarbamoylpyridin-4-ylethynyl)-phenyl]-piperazine-1-sulfonylamino}-proponic acid], the figure is less than 0.01 µM; as for `C[C@@H](NS(=O)(=O)N1CCN(c2ccc(C#Cc3ccc4cccc(C(=O)NC5CC5)c4c3)cc2)CC1)C(=O)O` [Compound I-107, (R)-2-{4-[4-(8-cyclopropylcarbamoylnaphthalen-2-ylethynyl)-phenyl]-piperazine-1-sulfonylamino}-proponic acid], less than 0.01 µM.
Consider `C[C@@H](NS(=O)(=O)N1CCN(c2ccc(C#Cc3ccc4cccc(/C=C/c5nnn[nH]5)c4c3)cc2)CC1)C(=O)O` [Compound I-71], for which the IC50 was less than 0.01 µM.
As for `Cc1cc(CNC(=O)c2cccc(C#Cc3ccc(N4CCN(S(=O)(=O)N[C@H](C)C(=O)O)CC4)cc3)c2)ccc1F` [Compound I-28, (R)-2-(4-{4-[3-(4-fluoro3-methylbenzylcarbamoyl)-phenylethynyl]-phenyl}-piperazine-1-sulfonylamino)-proponic acid], the IC50 was less than 0.01 µM.
With `C[C@@H](NS(=O)(=O)N1CCN(c2ccc(C#Cc3ccc4cccc(S(C)(=O)=O)c4c3)cc2)CC1)C(=O)O` [Compound I-83, (R)-2-{4-[4-(8-methanesulfonylnaphthalen-2-ylethynyl)-phenyl]-piperazine-1-sulfonylamino}-proponic acid], the IC50 lay in the range of 0.01 to 0.1 µM.
Turning to `C[C@@H](NS(=O)(=O)N1CCN(c2ccc(C#Cc3ccc4cccc(S(N)(=O)=O)c4c3)cc2)CC1)C(=O)O` [Compound I-81, (R)-2-{4-[4-(8-sulfamoylnaphthalen-2-ylethynyl)-phenyl]-piperazine-1-sulfonylamino}-proponic acid], the IC50 fell in the range of 0.01 to 0.1 µM.
Regarding `C[C@@H](NS(=O)(=O)N1CCN(c2ccc(C#Cc3ccc4cccc(/C=C/Cl)c4c3)cc2)CC1)C(=O)O` [Compound I-72, (R)-2-(4-{4-[8-((E)-2-chlorovinyl)-naphthalen-2-ylethynyl]-phenyl}-piperazine-1-sulfonylamino)-proponic acid], the IC50 fell in the range of 0.01 to 0.1 µM.
As to `C[C@@H](NS(=O)(=O)N1CCN(c2ccc(C#Cc3cccc(C(=O)NCc4ccc(Cl)cc4)c3)cc2)CC1)C(=O)O` [Compound I-32, (R)-2-(4-{4-[3-(4-chlorobenzylcarbamoyl)-phenylethynyl]-phenyl}-piperazine-1-sulfonylamino)-proponic acid], the IC50 is less than 0.01 µM.
Regarding `CO/N=C(\C)c1cccc2ccc(C#Cc3ccc(N4CCN(S(=O)(=O)N[C@H](C)C(=O)O)CC4)cc3)cc12` [Compound I-95, (R)-2-{4-[4-(8-{1-[(E)-methoxyimino]-ethyl}-naphthalen-2-ylethynyl)-phenyl]-piperazine-1-sulfonylamino}-proponic acid], the IC50 fell in the range of 0.01 to 0.1 µM.
In the case of `CO/N=C(/C)c1cccc2ccc(C#Cc3ccc(N4CCN(S(=O)(=O)N[C@H](C)C(=O)O)CC4)cc3)cc12` [Compound I-96, (R)-2-{4-[4-(8-{1-[(Z)-methoxyimino]-ethyl}-naphthalen-2-ylethynyl)-phenyl]-piperazine-1-sulfonylamino}-proponic acid], the IC50 fell in the range of 0.01 to 0.1 µM.
For the compound `CC(C)C[C@@H](NS(=O)(=O)N1CCN(c2ccc(C#Cc3ccc4cccc(C(N)=O)c4c3)cc2)CC1)C(=O)O` [Compound I-60, (R)-2-{4-[4-(8-carbamoylnaphthalen-2-ylethynyl)-phenyl]-piperazine-1-sulfonylamino}-4-methylpentanoic acid], the IC50 was 0.01 to 0.1 µM.
In the case of `C[C@@H](NS(=O)(=O)N1CCN(c2ccc(C#Cc3cccc(C(=O)NCc4ccccc4)n3)cc2)CC1)C(=O)O` [Compound I-18, (R)-2-{4-[4-(6-benzylcarbamoylpyridine 2-ylethynyl)-phenyl]-piperazine-1-sulfonylamino}-proponic acid], the IC50 was less than 0.01 µM.
`C[C@@H](NS(=O)(=O)N1CCN(c2ccc(C#Cc3ccc4cccc(C(=O)NCCNC(=O)OC(C)(C)C)c4c3)cc2)CC1)C(=O)O` [Compound I-62, (R)-2-(4-{4-[8-(2-tert-butoxycarbonylaminoethylcarbamoyl)-naphthalen-2-ylethynyl]-phenyl}-piperazine-1-sulfonylamino)-proponic acid]: the IC50 is 0.01 to 0.1 µM.
With `Cc1cnc(-c2cccc(C#Cc3ccc(N4CCN(S(=O)(=O)N[C@@H](C(=O)O)C(C)C)CC4)cc3)c2)o1` [Compound I-27, (R)-3-methyl-2-(4-{4-[3-(5-methyloxazol-2-yl)-phenylethynyl]-phenyl}-piperazine-1-sulfonylamino)-butanoic acid], the IC50 was 0.01 to 0.1 µM.
Turning to `C[C@H](NS(=O)(=O)N1CCN(c2ccc(C#Cc3ccc4cccc(C(N)=O)c4c3)cc2)CC1)C(=O)O` [Compound I-105, (S)-2-{4-[4-(8-carbamoylnaphthalen-2-ylethynyl)-phenyl]-piperazine-1-sulfonylamino}-proponic acid], the IC50 lay in the range of 0.01 to 0.1 µM.
As to `C[C@@H](NS(=O)(=O)N1CCN(c2ccc(C#Cc3ccc4cccc(-c5ncco5)c4c3)cc2)CC1)C(=O)O` [Compound I-109, (R)-2-{4-[4-(8-oxazol-2-ylnaphthalen-2-ylethynyl)-phenyl]-piperazine-1-sulfonylamino}-proponic acid], the IC50 lay within 0.01 to 0.1 µM.
In the case of `Cc1cnc(-c2cccc3ccc(C#Cc4ccc(N5CCN(S(=O)(=O)N[C@H](C)C(=O)O)CC5)cc4)cc23)o1` [Compound I-108, (R)-2-(4-{4-[8-(5-methyloxazol-2-yl)-naphthalen-2-ylethynyl]-phenyl}-piperazine-1-sulfonylamino)-proponic acid], the IC50 was 0.01 to 0.1 µM.
Take `CC(C)[C@@H](NS(=O)(=O)N1CCN(c2ccc(C#Cc3ccc4cccc(C(N)=O)c4c3)cc2)CC1)C(=O)O` [Compound I-93, (R)-2-{4-[4-(8-carbamoylnaphthalen-2-ylethynyl)-phenyl]-piperazine-1-sulfonylamino}-3-methylbutanoic acid]: the IC50 lay in the range of 0.01 to 0.1 µM.
In the case of `C[C@@H](NS(=O)(=O)N1CCN(c2ccc(C#Cc3ccc4cccc(C(=O)NCc5ccccc5)c4c3)cc2)CC1)C(=O)O` [Compound I-106, (R)-2-{4-[4-(8-benzylcarbamoylnaphthalen-2-ylethynyl)-phenyl]-piperazine-1-sulfonylamino}-proponic acid], the IC50 was less than 0.01 µM.
`C[C@@H](NS(=O)(=O)N1CCN(c2ccc(C#Cc3ccc4cccc(/C=C/C(N)=O)c4c3)cc2)CC1)C(=O)O` [Compound I-68, (R)-2-(4-{4-[8-((E)-2-carbamoylvinyl)-naphthalen-2-ylethynyl]-phenyl}-piperazine-1-sulfonylamino)-proponic acid]: the IC50 is less than 0.01 µM.
As to `CC(=O)c1cccc2ccc(C#Cc3ccc(N4CCN(S(=O)(=O)N[C@@H](C(=O)O)C(C)C)CC4)cc3)cc12` [Compound I-101, (R)-2-{4-[4-(8-acetylnaphthalen-2-ylethynyl)-phenyl]-piperazine-1-sulfonylamino}-3-methylbutanoic acid], the IC50 was 0.01 to 0.1 µM.
Regarding `CC(C)NS(=O)(=O)c1cccc2ccc(C#Cc3ccc(N4CCN(S(=O)(=O)N[C@H](C)C(=O)O)CC4)cc3)cc12` [Compound I-80, (R)-2-{4-[4-(8-isopropylsulfamoylnaphthalen-2-ylethynyl)-phenyl]-piperazine-1-sulfonylamino}-proponic acid], the IC50 lay in the range of 0.01 to 0.1 µM.
The value for `CC(C)C[C@H](NS(=O)(=O)N1CCN(c2ccc(C#Cc3ccc4cccc(C(N)=O)c4c3)cc2)CC1)C(=O)O` [Compound I-55, (S)-2-{4-[4-(8-carbamoylnaphthalen-2-ylethynyl)-phenyl]-piperazine-1-sulfonylamino}-4-methylpentanoic acid] was 0.01 to 0.1 µM.
For `CC(C)[C@H](NS(=O)(=O)N1CCN(c2ccc(C#Cc3ccc4cccc(C(N)=O)c4c3)cc2)CC1)C(=O)O` [Compound I-58, (S)-2-{4-[4-(8-carbamoylnaphthalen-2-ylethynyl)-phenyl]-piperazine-1-sulfonylamino}-3-methylbutanoic acid], the IC50 lay within 0.01 to 0.1 µM.
In the case of `C[C@@H](NS(=O)(=O)N1CCN(c2ccc(C#Cc3ccc4cccc(/C=C/C#N)c4c3)cc2)CC1)C(=O)O` [Compound I-67, (R)-2-(4-{4-[8-((E)-2-cyanovinyl)-naphthalen-2-ylethynyl]-phenyl}-piperazine-1-sulfonylamino)-proponic acid], the IC50 is less than 0.01 µM.
Consider `CCC[C@H](NS(=O)(=O)N1CCN(c2ccc(C#Cc3cccc(-c4ncc(C)o4)c3)cc2)CC1)C(=O)O` [Compound I-26, (S)-2-(4-{4-[3-(5-methyloxazol-2-yl)-phenylethynyl]-phenyl}-piperazine-1-sulfonylamino)-pentanoic acid], for which the IC50 was in the range of 0.01 to 0.1 µM.
On to `Cc1cc(CNC(=O)c2cccc(/C=C/c3ccc(N4CCN(S(=O)(=O)N[C@H](C)C(=O)O)CC4)cc3)c2)ccc1F` [Compound I-29, (R)-2-[4-(4-{(E)-2-[3-(4-fluoro3-methylbenzylcarbamoyl)-phenyl]-vinyl}-phenyl)-piperazine-1-sulfonylamino]-proponic acid], for which the IC50 fell in the range of 0.01 to 0.1 µM.
